Experimental data published in patent publication US8354398B2, “Substituted isoxazole compounds” (Bristol-Myers Squibb Company, priority 2009, dated 2013).

How the values were obtained:
[1] = molecular target: T1, S1P1 (Homo sapiens, UniProt P21453); test: Method B: Receptor [35S] GTPγS SPA Binding Assay, membranes from S1P1 transfected CHO cells; type: biochemical; parameters: expressed in transfected cells; host or cells: S1P1/CHO cells
Method in brief: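 CHO-cell membranes (2 μg protein) with test compound, 5 μM GDP, saponin and WGA-PVT SPA beads, pH 7.4; reaction started with 0.2 nM [35S]-GTPγS, 90 min at room temperature. Bound counts expressed as % of 1 μM S1P response, EC50 from four-parameter logistic fit; no curves where Ymax below 50%.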

[2] = system: circulating lymphocytes; test: Blood Lymphocyte Reduction Assay (BLR) in rats; type: in vivo; settings: Lewis rats, oral, vs vehicle group
Experimental: (§1) Lewis rats or BALB/c mice were dosed orally with test article (as a solution or suspension in the vehicle) or vehicle alone (polyethylene glycol 300, “PEG300”). Blood was drawn at 4 hr and 24 h by retro-orbital bleeding. Blood lymphocyte counts were determined on an ADVIA® 120 Hematology Analyzer (Siemens Healthcare Diagnostics). The results were measured as a reduction in the percentage of circulating lymphocytes as compared to the vehicle treated group at the 4 hr and 24 hr measurement. The results represent the average results of all animals within each treatment group (n=3-4).
(§2) Examples 1 and 2 were tested in the Blood Lymphocyte Reduction assay (BLR) described hereinabove and the results are shown in Table D for rats and Table E for mice.

[3] = molecular target: T2, S1P3 (Homo sapiens, UniProt Q99500); test: Method A: Receptor [35S] GTPγS Binding Assay, membranes from EDG3-Ga15-bla HEK293T cells; type: biochemical; parameters: expressed in transfected cells; host or cells: EDG3-Ga15-bla HEK293T cells; settings: EDG3-Ga15-bla HEK293T cell membranes
Method in brief: (§3)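 Membranes ([…]) incubated 45 min at room temperature with 3-fold compound dilutions and 0.2 nM final [35S]GTPγS in HEPES pH 7.5 buffer containing 10 μM GDP, MgCl2, EGTA, DTT, BSA and saponin. Bound label collected by filtration and scintillation counting; EC50 taken at 50% of each compound's Ymax.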
Target sequence in this assay (Q99500 whole entry): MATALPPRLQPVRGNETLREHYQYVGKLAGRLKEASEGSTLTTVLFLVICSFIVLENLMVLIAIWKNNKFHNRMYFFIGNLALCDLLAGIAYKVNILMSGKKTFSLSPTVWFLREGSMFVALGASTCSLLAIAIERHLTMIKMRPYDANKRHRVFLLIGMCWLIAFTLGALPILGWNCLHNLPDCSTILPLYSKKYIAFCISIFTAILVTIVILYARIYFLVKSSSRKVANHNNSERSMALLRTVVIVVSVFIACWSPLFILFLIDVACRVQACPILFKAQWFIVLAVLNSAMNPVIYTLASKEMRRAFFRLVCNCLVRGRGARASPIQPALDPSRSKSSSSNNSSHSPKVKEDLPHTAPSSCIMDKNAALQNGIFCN

[4] = system: experimental autoimmune encephalomyelitis (clinical score); test: Mouse Experimental Autoimmune Encephalomyelitis Assay (EAE); type: in vivo, C57BL/6 mice; settings: for Clinical Score on day 21, Mean: C57BL/6 female mice, vehicle mean 2.79
[5] = system: circulating lymphocytes; test: Blood Lymphocyte Reduction Assay (BLR) in mice; type: in vivo; settings: BALB/c mice, oral, vs vehicle group
Experimental: as §1, §2

[6] = molecular target: T2, S1P3; test: Method B: Receptor [35S] GTPγS SPA Binding Assay, membranes from S1P3 transfected CHO cells; type: biochemical; parameters: expressed in transfected cells; host or cells: CHO cells; settings: S1P3 transfected CHO cell membranes, NC = a satisfactory dose response curve was not obtained
Experimental: Membranes prepared from S1P1 or S1P3 transfected CHO cells (2 μg protein) were incubated in 96-well white plates (CORNING® 3693) with test compounds diluted in DMSO, in 50 μl of reaction mixture containing 7.5 μl WGA-PVT beads (20 mg/ml), and 5 μM GDP, 20 mM HEPES pH 7.4, 100 mM NaCl, 1 mM EDTA, 5 mM MgCl2, 10 μg/ml saponin, 0.1% BSA, and 1 μM leupeptin. The assay was initiated with the addition of 25 μl of 0.2 nM [^35S]-GTPγS (1250 Ci/mmol; NEN) in assay buffer. After 90 min incubation at room temperature, spin the plate at 1000 rpm for 5 min. The bound radionuclides were measured at TOPCOUNT®, expressed as % response relative to S1P (1 μM) activation. Data was analyzed using the four parameter logistic equation in Excel. The four parameters in the equation, Y=A+((B−A)/(1+((EC50/X)^D))), are described as following: A is the Y value (agonist activity) at the bottom plateau; B is the Y value at the top plateau; EC50 is the X value (agonist concentration) when the response is halfway between bottom and top; D is Hill coefficient. Curves were not generated for compounds having Ymax values were below 50%.
Compounds of the present invention and Comparative Compound A were tested in the Receptor [^35S] GTPγS Binding Assays (Method A) and Receptor [35S] In some instances, the value is an average of multiple experiments where N is the number of experiments conducted that provided satisfactory dose response curves. When more than one batch of an example was tested, the value presented is from a batch which allowed a comparison of GTPγS S1P1 and GTPγS S1P3 in which the most number of experiments were performed. Preferably, the same batch was examined in Method A and Method B. Data was not averaged across different batches of an example compound.
Target sequence in this assay (Q99500 whole entry, species assumed): as the sequence (Q99500 whole entry) above

[7] = molecular target: T1, S1P1; test: Method A: Receptor [35S] GTPγS Binding Assay, membranes from S1P1/CHO cells; type: biochemical; parameters: expressed in transfected cells; host or cells: S1P1/CHO cells
Method in brief: as §3

T1 sequence (P21453 whole entry): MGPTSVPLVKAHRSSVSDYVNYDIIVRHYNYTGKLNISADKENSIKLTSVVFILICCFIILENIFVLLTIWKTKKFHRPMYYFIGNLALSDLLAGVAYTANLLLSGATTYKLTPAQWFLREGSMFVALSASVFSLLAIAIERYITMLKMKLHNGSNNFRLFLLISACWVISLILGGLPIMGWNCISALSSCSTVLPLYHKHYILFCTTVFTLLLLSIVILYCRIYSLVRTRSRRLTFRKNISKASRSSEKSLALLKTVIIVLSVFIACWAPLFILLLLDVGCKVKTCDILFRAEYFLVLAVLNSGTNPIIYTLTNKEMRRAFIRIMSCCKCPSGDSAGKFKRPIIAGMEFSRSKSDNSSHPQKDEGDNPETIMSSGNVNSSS

O=C(O)C1CN(Cc2ccc(-c3noc(-c4onc(-c5ccccc5)c4C(F)(F)F)n3)cc2)C1 [Example 1, 1-(4-(5-(3-Phenyl-4-(trifluoromethyl)isoxazol-5-yl)-1,2,4-oxadiazol-3-yl)benzyl)azetidine-3-carboxylic acid]
EC50 ([1]; Method B SPA, S1P1 transfected CHO cell membranes, NC = a satisfactory dose response curve was not obtained): 0.048 nM
GTPγS S1P3/S1P1 (Method B) ([1]; ratio of GTPγS S1P3 EC50 to GTPγS S1P1 EC50, Method B): 11,000
% reduction in lymphocytes at 4 hr. ([2]; 0.03 mg/kg): 75%
% reduction in lymphocytes at 24 hr. ([2]; 0.03 mg/kg): 45%
% reduction in lymphocytes at 4 hr. ([2]; 0.3 mg/kg): 82%
% reduction in lymphocytes at 24 hr. ([2]; 0.3 mg/kg): 73%
EC50 [3]: 940 nM
Clinical Score on day 21, Mean ([4]; 0.02 mg/kg once daily from 1 day after immunization): 1.75
Clinical Score on day 21, Mean ([4]; 0.2 mg/kg once daily from 1 day after immunization): 1.13
Clinical Score on day 21, Mean ([4]; 2.0 mg/kg once daily from 1 day after immunization): 1.15
disease progression as determined by the clinical scores ([4]; C57Bl/6 mice, prophylactic oral dosing): inhibits disease progression
% reduction in lymphocytes at 4 hr. ([5]; 0.001 mg/kg): 12%
% reduction in lymphocytes at 24 hr. ([5]; 0.001 mg/kg): 31%
% reduction in lymphocytes at 4 hr. ([5]; 0.01 mg/kg): 32%
% reduction in lymphocytes at 24 hr. ([5]; 0.01 mg/kg): 45%
% reduction in lymphocytes at 4 hr. ([5]; 0.1 mg/kg): 85%
% reduction in lymphocytes at 24 hr. ([5]; 0.1 mg/kg): 89%
% reduction in lymphocytes at 4 hr. ([5]; 1.0 mg/kg): 90%
% reduction in lymphocytes at 24 hr. ([5]; 1.0 mg/kg): 91%
EC50 [6]: 510 nM
EC50 ([7]; Method A, S1P1/CHO cell membranes): 0.68 nM
GTPγS S1P3/S1P1 (Method A) ([7]; ratio of GTPγS S1P3 EC50 to GTPγS S1P1 EC50, Method A): 1,400
